The results in this text go back to patent US4760136A, “Chartreusin derivatives and salts thereof” (Ishihara Sangyo Kaisha, Ltd., priority 1984, dated 1988).

Structures are written as SMILES.

Data set [1] in a line: Acute toxicity, intravenous (once), ddY mice. In kind it is in vivo. Particulars: mouse, in vivo, iv, formulated per Preparation Example. The text has this:
In Table 7 are shown acute toxicity values (LD50, mg/kg) in ddY mice in the case of intravenously administering (once) each of the compounds of this invention in the form of preparations shown in the Preparation Examples shown in Table 7.

For the next data set, the system named is P-388 leukemia cells. Put plainly: Antitumor activity: P-388 leukemia cells inoculated intraperitoneally, drug administered intravenously, BDF1 mice. It is filed as in vivo. Particulars: Mus musculus, P388, iv, BDF1 mice, P-388 i.p., read-out: T/C (%) of MST; for response vs control in vivo at 20 mg/kg: dose b: 20 mg/kg × 3, i.v. on days 1, 5 and 9; for response vs control in vivo at 40 mg/kg: dose c: 40 mg/kg × 3, i.v. on days 1, 5 and 9; for response vs control in vivo at 80 mg/kg: dose f: 80 mg/kg × 3, i.v. on days 1, 5 and 9. As for the experimental part: Into BDF1 mice were inoculated intraperitoneally P-388 leukemia cells at a rate of 1×10^6 cells/mouse, and each drug to be tested was administered intravenously on the first, fifth and ninth days after the inoculation. […] The drugs were as follows solutions prepared by adding physiological saline to each of compound Nos. 8, 9, 10, 11, 17, 34, 42, 59, 80 and 134; suspensions prepared by dispersing each of compound Nos. 41, 78, 98, 100, 130, 191, 212, 213, 215, 227 and 230 to 232 and a small amount of sodium carboxymethyl cellulose (Na.CMC) in physiological saline, […]

`COC1C(O)C(C)OC(OC2C(Oc3cccc4c(OC(=O)CCNC(=O)C(Cl)(Cl)Cl)c5c(=O)oc6ccc(C)c7c(=O)oc(c34)c5c67)OC(C)C3OC(c4ccccc4)OC32)C1O` (stereo not shown) [Compound No. 22] came in with an LD50 in data set [1] not below 40 mg/kg. Also, in the data set on P-388 leukemia cells, the response vs control in vivo at 20 mg/kg came to 181%.
Take `COC1C(O)C(C)OC(OC2C(Oc3cccc4c(OC(=O)CCNC(=O)c5ccccc5)c5c(=O)oc6ccc(C)c7c(=O)oc(c34)c5c67)OC(C)C3OC(c4ccccc4)OC32)C1O` (stereo not shown) [Compound No. 23]: the LD50 in data set [1] was not below 40 mg/kg. In the data set on P-388 leukemia cells, the response vs control in vivo at 20 mg/kg came out at 205% and the response vs control in vivo at 40 mg/kg stood at 233%.
For `COC1C(O)C(C)OC(OC2C(Oc3cccc4c(OC(=O)CCCNC(=O)C(F)(F)F)c5c(=O)oc6ccc(C)c7c(=O)oc(c34)c5c67)OC(C)C3OC(c4ccccc4)OC32)C1O` (stereo not shown) [Compound No. 24], in data set [1], the LD50 is not below 40 mg/kg. In the data set with P-388 leukemia cells, the response vs control in vivo at 20 mg/kg was 161% and the response vs control in vivo at 40 mg/kg is 223%.
Molecule `COC1C(O)C(C)OC(OC2C(Oc3cccc4c(OC(=O)CN(C)C(=O)C(F)(F)F)c5c(=O)oc6ccc(C)c7c(=O)oc(c34)c5c67)OC(C)C3OC(c4ccccc4)OC32)C1O` (stereo not shown) [Compound No. 25] displayed an LD50 in data set [1] not below 40 mg/kg. For the same molecule, the response vs control in vivo at 20 mg/kg in the data set on P-388 leukemia cells is 212%.
Take `COC1C(O)C(C)OC(OC2C(Oc3cccc4c(OC(=O)C(C)CNC(=O)C(F)(F)F)c5c(=O)oc6ccc(C)c7c(=O)oc(c34)c5c67)OC(C)C3OC(c4cccc(C(F)(F)F)c4)OC32)C1O` (stereo not shown) [Compound No. 30]: the 50% lethal dose (LD50) in data set [1] was not below 80 mg/kg. Besides, in the data set with P-388 leukemia cells, the response vs control in vivo at 40 mg/kg stood at 171% and the response vs control in vivo at 80 mg/kg stood at 257%.
The matching figures for `COC1C(O)C(C)OC(OC2C(Oc3cccc4c(OC(=O)CCNC(=O)C(F)(F)F)c5c(=O)oc6ccc(C)c7c(=O)oc(c34)c5c67)OC(C)C3OC(c4cccc(Br)c4)OC32)C1O` (stereo not shown) [Compound No. 31]: not below 80 mg/kg, 171% and 238%.
For the molecule `COC1C(O)C(C)OC(OC2C(Oc3cccc4c(OC(=O)CCN5CCCC5)c5c(=O)oc6ccc(C)c7c(=O)oc(c34)c5c67)OC(C)C3OC(c4cccc(F)c4)OC32)C1O` (stereo not drawn) [Compound No. 34, 6-O-(β-1-pyrrolidinyl-propionyl)-3',4'-O-(m-fluorobenzylidene)-chartreusin phosphate], the LD50 in data set [1] is not below 30 mg/kg. Besides, the response vs control in vivo at 40 mg/kg in the data set with P-388 leukemia cells was determined as 140%.
Turning to `COC1C(O)C(C)OC(OC2C(Oc3cccc4c(OC(=O)CCNC(C)=O)c5c(=O)oc6ccc(C)c7c(=O)oc(c34)c5c67)OC(C)C3OC(c4ccccc4)OC32)C1O` (stereo not shown) [Compound No. 38], the LD50 in data set [1] was not below 40 mg/kg. Also, in the data set on P-388 leukemia cells, the response vs control in vivo at 20 mg/kg was 203%.
`COC1C(O)C(C)OC(OC2C(Oc3cccc4c(OC(=O)CC(C)NC(=O)C(F)(F)F)c5c(=O)oc6ccc(C)c7c(=O)oc(c34)c5c67)OC(C)C3OC(c4ccccc4)OC32)C1O` (stereo not shown) [Compound No. 39] displayed an LD50 in data set [1] not below 40 mg/kg. In addition, in the data set on P-388 leukemia cells, the response vs control in vivo at 20 mg/kg stood at 165% and the response vs control in vivo at 40 mg/kg is 214%.
In data set [1], `COC1C(O)C(C)OC(OC2C(Oc3cccc4c(OC(=O)CCCCNC(=O)C(F)(F)F)c5c(=O)oc6ccc(C)c7c(=O)oc(c34)c5c67)OC(C)C3OC(c4ccccc4)OC32)C1O` (stereo not shown) [Compound No. 43] showed a 50% lethal dose (LD50) not below 40 mg/kg. Besides, the response vs control in vivo at 20 mg/kg in the data set with P-388 leukemia cells is 226%.
Molecule `COC1C(O)C(C)OC(OC2C(Oc3cccc4c(OC(=O)CCNC=O)c5c(=O)oc6ccc(C)c7c(=O)oc(c34)c5c67)OC(C)C3OC(c4cccc(F)c4)OC32)C1O` (stereo not shown) [Compound No. 46] registered an LD50 in data set [1] not below 80 mg/kg. Further, in the data set on P-388 leukemia cells, the response vs control in vivo at 40 mg/kg turned out to be 157% and the response vs control in vivo at 80 mg/kg is 210%.
With `COC1C(O)C(C)OC(OC2C(Oc3cccc4c(OC(=O)CCNC(=O)c5ccccc5)c5c(=O)oc6ccc(C)c7c(=O)oc(c34)c5c67)OC(C)C3OC(c4cccc(F)c4)OC32)C1O` (stereo not drawn) [Compound No. 47, 6-O-(N-benzoyl-β-alanyl)-3',4'-O-(m-fluorobenzylidene)-chartreusin], in data set [1], the median lethal dose (LD50) is not below 80 mg/kg. In addition, in the data set on P-388 leukemia cells, the response vs control in vivo at 40 mg/kg is 150% and the response vs control in vivo at 80 mg/kg stood at 210%.

The LD50 is the dose expected to kill half of the subjects tested. Low readings indicate greater toxicity, high ones lower toxicity.
